Measurements reported in patent US20240383971A1, “Anti-DFS70 Autoantibodies and methods of attenuating formation of nets” (McMaster University, priority 2023, published 2024).

Tested on: neutrophils isolated from healthy donors
Experiment: In vitro NETosis assay (SEM images, MATLAB quantification)
Format: cell-based, human
Details: healthy donor neutrophils pooled n=4, 6 hrs

| Compound | induction of NETosis in healthy neutrophils |
| --- | --- |
| CCCCCCCCCCCCCC(=O)O[C@@H]1[C@@H](C)[C@@]2(O)[C@@H](C=C(CO)C[C@]3(O)C(=O)C(C)=C[C@@H]23)[C@@H]2C(C)(C)[C@]12OC(C)=O [PMA, Phorbol 12-myristate 13-acetate] | stimulated to NETosis |
| CNc1ccc2oc(C[C@H]3O[C@@]4(CC[C@H]3C)O[C@H]([C@H](C)C(=O)c3ccc[nH]3)[C@H](C)C[C@H]4C)nc2c1C(=O)O [A23187] | stimulated to NETosis |
